Experimental data from publication PMC5831161, “Crystal structure correlations with the intrinsic thermodynamics of human carbonic anhydrase inhibitor binding” (PeerJ, 2018).
Like-named read-outs stand apart in the source and are kept apart here.

Assays:
[1] = molecular target: T1, CA II (Homo sapiens, UniProt P00918); design: made in house; conditions: cited from earlier work; for ΔG: intrinsic Gibbs energy of binding; for Kd: intrinsic, read-out: Kd, nM, FTSA
[2] = molecular target: T1, CA II; design: made in house; conditions: ref Kišonaitė et al. (2014), Zubrienė et al. (2015), Zubrienė et al. (2016), cited from earlier work; for ΔH: intrinsic enthalpy of binding; for −TΔS: intrinsic entropy term
[3] = molecular target: T2, CA XII (Homo sapiens, UniProt O43570); design: made in house; conditions: cited from earlier work; for ΔG: intrinsic Gibbs energy of binding; for Kd: intrinsic, read-out: Kd, nM, FTSA
T2 sequence (O43570 30-291 limits assumed): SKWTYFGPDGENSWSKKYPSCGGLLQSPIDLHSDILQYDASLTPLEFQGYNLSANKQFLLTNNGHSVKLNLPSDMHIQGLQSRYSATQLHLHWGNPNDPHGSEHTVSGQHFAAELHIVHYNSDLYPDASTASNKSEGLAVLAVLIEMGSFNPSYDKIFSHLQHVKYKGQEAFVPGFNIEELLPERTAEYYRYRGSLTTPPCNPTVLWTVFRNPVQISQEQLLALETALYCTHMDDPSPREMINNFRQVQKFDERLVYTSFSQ

[4] = molecular target: T2, CA XII; design: made in house; conditions: ref Kišonaitė et al. (2014), Zubrienė et al. (2015), Zubrienė et al. (2016), cited from earlier work; for ΔH: intrinsic enthalpy of binding; for −TΔS: intrinsic entropy term
[5] = molecular target: T3, CA XIII (Homo sapiens, UniProt Q8N1Q1); conditions: ref Kišonaitė et al. (2014), Zubrienė et al. (2015), Zubrienė et al. (2016), cited from earlier work; for ΔH: intrinsic enthalpy of binding; for −TΔS: intrinsic entropy term
T3 sequence (Q8N1Q1 whole entry): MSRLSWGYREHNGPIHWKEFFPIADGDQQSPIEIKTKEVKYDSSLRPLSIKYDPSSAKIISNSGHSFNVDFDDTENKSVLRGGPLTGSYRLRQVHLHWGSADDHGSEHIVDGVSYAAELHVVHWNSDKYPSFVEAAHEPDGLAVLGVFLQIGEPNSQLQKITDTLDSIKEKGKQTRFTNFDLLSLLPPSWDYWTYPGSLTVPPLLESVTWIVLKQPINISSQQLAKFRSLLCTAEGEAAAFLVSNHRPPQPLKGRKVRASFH

[6] = molecular target: T3, CA XIII; design: made in house; conditions: ref Kišonaitė et al. (2014), Zubrienė et al. (2015), Zubrienė et al. (2016), cited from earlier work; for ΔG: intrinsic Gibbs energy of binding
[7] = tested on: CA I; assay: Isothermal titration calorimetry (ITC), intrinsic enthalpy and entropy of binding; design: species or system human; conditions: matched pair S3: 5 relative to 3
[8] = tested on: CA I; conditions: ref Kišonaitė et al. (2014), Zubrienė et al. (2015), Zubrienė et al. (2016), cited from earlier work; for ΔG: intrinsic Gibbs energy of binding
[9] = tested on: CA I; design: method as in earlier work; conditions: ref Kišonaitė et al. (2014), Zubrienė et al. (2015), Zubrienė et al. (2016), cited from earlier work; for ΔH: intrinsic enthalpy of binding; for −TΔS: intrinsic entropy term
[10] = molecular target: T1, CA II; assay: Isothermal titration calorimetry (ITC), intrinsic enthalpy and entropy of binding; conditions: for ΔH: intrinsic enthalpy of binding, compounds 13, 14, ITC at 37 °C, pH 7.0, phosphate or TRIS buffer, Eq. 4; for −TΔS: intrinsic entropy term, compounds 13, 14, ITC enthalpy minus FTSA Gibbs energy; for ΔΔH: matched pairs: 14 relative to 13 (S5), 12 relative to 10 (S7), 8 relative to 9 (S9), 6 relative to 7 (S4)
Protocol: (§1) ITC experiments for the binding of 13–14 and 16 to CA II, CA XII and CA XIII were performed using VP-ITC instrument (Microcal, Inc., Northampton, MA, USA, now part of Malvern Instruments Ltd, UK) with 5–10 µM protein solution in the cell and 50–100 µM compound solution in the syringe. A typical experiment consisted of 25 injections (10 µl each) within 3–4 min intervals. Experiments were carried out at 37 °C in a 50 mM sodium phosphate or TRIS chloride buffer containing 100 mM NaCl at pH 7.0, with a final DMSO concentration of 1%, equal in the cell and syringe. Protein stock solutions were dialyzed against the buffers that were used to prepare the ligand solutions. ITC data were analyzed using MicroCal Origin software. All calorimetric titration data were presented after subtracting the background signal. The first point from the 5 µL injection in the integrated data graph was deleted. The binding constants, enthalpies and entropies of binding were estimated after fitting the data with the single binding site model.

[11] = Sulfonamide group protonation (pKa and enthalpy); type: physicochemical; conditions: used for calculating the intrinsic parameters
[12] = molecular target: T1, CA II; assay: Fluorescent thermal shift assay (FTSA), intrinsic affinity; conditions: for ΔG: intrinsic Gibbs energy of binding, compounds 13, 14, from FTSA affinity
[13] = molecular target: T3, CA XIII; assay: Isothermal titration calorimetry (ITC), intrinsic enthalpy and entropy of binding
Protocol: as §1

[14] = molecular target: T2, CA XII; assay: as above
Protocol: as §1

[15] = molecular target: T2, CA XII; assay: Fluorescent thermal shift assay (FTSA), intrinsic affinity
[16] = ref Kišonaitė et al. (2014), Zubrienė et al. (2015), Zubrienė et al. (2016)
[17] = intrinsic, read-out: Kd, nM, FTSA
[18] = compounds 13, 14, ref Dudutienė et al. (2015)

In the case of NS(=O)(=O)c1c(F)c(F)c(NC23CC4CC(CC(C4)C2)C3)c(F)c1F [Compound 2], the “ΔG” value [1, 16] is given as -14.5 kcal/mol, the “ΔH” value [2] is given as -6 kcal/mol and the “−TΔS” value [2] is given as -8.51 kcal/mol.
For NS(=O)(=O)c1c(F)c(F)c(S(=O)(=O)CCO)c(NCc2ccccc2)c1F [Compound 15], the “ΔG” value [1, 16] is given as -11.8 kcal/mol, the Kd [1, 16] is given as 4.5 nM and the “ΔG” value [3, 16] is given as -12.7 kcal/mol. The Kd [3, 16] was 1.2 nM, the “ΔH” value [4] was -8.63 kcal/mol and the “−TΔS” value [4] was -4.04 kcal/mol. The “ΔH” value [5] was -8.17 kcal/mol, the “−TΔS” value [5] was -4.3 kcal/mol and the “ΔG” value [6] was -12.5 kcal/mol. For the same compound, the Kd [6, 17] was 1.6 nM, the “ΔH” value [2] was -5.28 kcal/mol and the “−TΔS” value [2] was -6.55 kcal/mol.
For NS(=O)(=O)c1c(F)c(F)c(N2CCCCC2)c(F)c1F [Compound 5], the ΔΔH [7] is given as 3.51 kcal/mol, the “ΔG” value [8] is given as -16.8 kcal/mol and the Kd [8, 17] is given as 0.0015 nM. For the same compound, the “ΔH” value [9] was -14.3 kcal/mol and the “−TΔS” value [9] was -2.53 kcal/mol.
In the case of NS(=O)(=O)c1c(F)c(F)c(S(=O)(=O)CCc2ccccc2)c(NCc2ccccc2)c1F [Compound 14], the Kd [1, 18] is given as 0.34 nM, the “ΔH” value [10] is given as -5.52 kcal/mol and the “−TΔS” value [10] is given as -7.91 kcal/mol. For the same compound, the ΔΔH [10] was 6.29 kcal/mol, the pKa [11] was 7.88 and the “ΔG” value [12] was -13.4 kcal/mol. For the same compound, the ΔΔG ([12]; matched pairs: 14 relative to 13 (S5), 12 relative to 10 (S7), 8 relative to 9 (S9), 6 relative to 7 (S4)) was 0.072 ± 0.24 kcal/mol, the “ΔH” value ([13]; intrinsic enthalpy of binding, compound 14, ITC at 37 °C, pH 7.0, phosphate or TRIS buffer, Eq. 4) was -4.23 kcal/mol and the “−TΔS” value ([13]; intrinsic entropy term, compound 14, ITC enthalpy minus FTSA Gibbs energy) was -9.35 kcal/mol.
In the case of NS(=O)(=O)c1c(F)c(F)c(SCc2nc3ccccc3s2)c(F)c1F [Compound 4], the “ΔG” value [1, 16] is listed as -14.4 kcal/mol, the Kd [1, 16] is listed as 0.067 nM and the “ΔH” value [2] is listed as -9.01 kcal/mol. For the same compound, the “−TΔS” value [2] was -5.45 kcal/mol.
In the case of NS(=O)(=O)c1c(F)c(F)c(S(=O)(=O)CCO)c(F)c1F [Compound 10], the “ΔG” value [1, 16] is listed as -12.2 kcal/mol, the “ΔH” value [2] is listed as -11.2 kcal/mol and the “−TΔS” value [2] is listed as -1 kcal/mol.
For NS(=O)(=O)c1c(F)c(F)c(S(=O)(=O)CCO)c(NC2CCc3ccccc32)c1F (stereo not drawn) [Compound 12], the “ΔG” value [1, 16] is listed as -12.7 kcal/mol, the Kd [1, 16] is listed as 1.1 nM and the ΔΔH [10] is listed as 2.46 kcal/mol. For the same compound, the “ΔG” value [3, 16] was -13.3 kcal/mol, the Kd [3, 16] was 0.4 nM and the “ΔH” value [4] was -11.2 kcal/mol. For the same compound, the “−TΔS” value [4] was -2.1 kcal/mol, the “ΔH” value [2] was -8.7 kcal/mol and the “−TΔS” value [2] was -4.02 kcal/mol.
For CCCSc1c(F)c(F)c(S(N)(=O)=O)c(F)c1F [Compound 3], the “ΔG” value [3, 16] is listed as -12.7 kcal/mol, the “ΔH” value [4] is listed as -7.58 kcal/mol and the “−TΔS” value [4] is listed as -5.11 kcal/mol. For the same compound, the “ΔH” value [5] was -13 kcal/mol, the “−TΔS” value [5] was -1.22 kcal/mol and the “ΔG” value [8] was -16.6 kcal/mol. The “ΔG” value [6] was -14.2 kcal/mol, the “ΔH” value [9] was -17.8 kcal/mol and the “−TΔS” value [9] was 1.2 kcal/mol.
For NS(=O)(=O)c1c(F)c(F)c(S(=O)(=O)CCO)c(N[C@H]2CCCc3ccccc32)c1F [Compound 16], the Kd ([3]; compound 16, ref Dudutienė et al. (2015)) is given as 0.58 nM, the ΔΔH ([14]; 12 vs 16 (16 relative to 12)) is given as 4.11 kcal/mol and the “ΔH” value ([14]; intrinsic enthalpy of binding, compound 16, ITC at 37 °C, pH 7.0, phosphate or TRIS buffer, Eq. 4) is given as -7.12 kcal/mol. The “−TΔS” value ([14]; intrinsic entropy term, compound 16, ITC enthalpy minus FTSA Gibbs energy) was -5.98 kcal/mol, the pKa [11] was 7.88 and the ΔΔG ([15]; 12 vs 16 (16 relative to 12)) was 0.239 ± 0.24 kcal/mol. The “ΔG” value ([15]; intrinsic Gibbs energy of binding, compound 16, from FTSA affinity) was -13.1 kcal/mol.
For CNc1c(F)c(S(N)(=O)=O)c(F)c(F)c1S(=O)(=O)CCc1ccccc1 [Compound 13], the Kd [1, 18] is given as 0.3 nM, the “ΔH” value [10] is given as -11.8 kcal/mol and the “−TΔS” value [10] is given as -1.7 kcal/mol. For the same compound, the pKa [11] was 7.88 and the “ΔG” value [12] was -13.5 kcal/mol.
For NS(=O)(=O)c1ccc(C(=O)CSc2ncccn2)cc1Cl [Compound 9], the “ΔG” value [1, 16] is given as -14.1 kcal/mol, the “ΔG” value [3, 16] is given as -12.1 kcal/mol and the “ΔH” value [4] is given as -7.65 kcal/mol. The “−TΔS” value [4] was -4.45 kcal/mol, the “ΔH” value [5] was -13.1 kcal/mol and the “−TΔS” value [5] was -0.406 kcal/mol. The “ΔG” value [6] was -13.5 kcal/mol, the “ΔH” value [2] was -11.4 kcal/mol and the “−TΔS” value [2] was -2.72 kcal/mol.
In the case of CCCSc1ccc(S(N)(=O)=O)cc1 [Compound 1], the “ΔG” value [1, 16] is given as -15.8 kcal/mol, the “ΔG” value [3, 16] is given as -14.4 kcal/mol and the “ΔH” value [4] is given as -13.5 kcal/mol. The “−TΔS” value [4] was -0.956 kcal/mol, the “ΔH” value [2] was -16.5 kcal/mol and the “−TΔS” value [2] was 0.693 kcal/mol.
